According to US5280047A, “2-(4-substituted)phenylmethylene derivatives and methods of use” (G. D. Searle & Co., priority 1993, dated 1994):
Several values for one entry are separate records, joined by “and”; a condition that tells them apart may be missing. Equal entries are not always repeated. Where two headings read alike, the source gives them in different places.

Target: T1, 5-lipoxygenase (Rattus norvegicus, UniProt P12527)
T1 construct: supernatant fraction of Rat Basophilic Leukemia Cell Homogenate (RBL-1) serves as a 5-lipoxygenase enzyme source; endogenous in cells; host or cells: RBL-1 (rat basophilic leukemia) cells, 100,000 x g supernatant of the homogenate
T1 sequence (P12527 1-673): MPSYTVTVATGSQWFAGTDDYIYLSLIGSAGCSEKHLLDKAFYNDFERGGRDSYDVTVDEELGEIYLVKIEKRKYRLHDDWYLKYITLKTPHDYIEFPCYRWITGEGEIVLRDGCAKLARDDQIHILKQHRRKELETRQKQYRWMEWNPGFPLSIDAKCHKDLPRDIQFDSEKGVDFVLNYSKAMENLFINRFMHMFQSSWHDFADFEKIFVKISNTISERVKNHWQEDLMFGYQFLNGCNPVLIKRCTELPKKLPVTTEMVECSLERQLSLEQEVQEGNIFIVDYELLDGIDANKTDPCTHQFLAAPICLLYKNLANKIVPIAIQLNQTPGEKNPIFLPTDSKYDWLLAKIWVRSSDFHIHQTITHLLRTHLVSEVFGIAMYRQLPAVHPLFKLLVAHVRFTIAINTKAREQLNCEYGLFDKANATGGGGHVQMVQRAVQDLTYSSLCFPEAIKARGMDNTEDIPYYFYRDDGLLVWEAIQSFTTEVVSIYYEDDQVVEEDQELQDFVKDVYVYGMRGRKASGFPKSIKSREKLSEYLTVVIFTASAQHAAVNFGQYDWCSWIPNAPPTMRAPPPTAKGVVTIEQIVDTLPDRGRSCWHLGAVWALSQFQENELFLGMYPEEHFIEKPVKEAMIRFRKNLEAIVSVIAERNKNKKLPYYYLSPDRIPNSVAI
Experiment: Inhibition of 5-lipoxygenase, in vitro (5-HETE synthesis, RBL-1 100,000 x g supernatant)
Format: biochemical
Conditions: for inhibition at 100 µM: RBL-1 supernatant, 5-HETE synthesis
Description: The compounds of the invention are evaluated with respect to 5-lipoxygenaseinhibition according to the following assay procedure.
Inhibition of 5-lipoxygenase, in vitro : anti-inflammatory, anti-allergy activities.
The 100,000 x g supernatant fraction of Rat Basophilic Leukemia Cell Homogenate (RBL-1) serves as a 5-lipoxygenase enzyme source. The enzyme is incubated with [1-^14 C)-arachidonic acid and Ca++ in the presence and absence of test compound. The product of 5-lipoxygenase, 5-hydroxyeicosatetraenoic acid (5-HETE), is separated by thin-layer chromatography and measured by radioactivity.
When more than one result is listed, this indicates the results from additional tests.

[1] = Rat Basophilic Leukemia Cell Homogenate (RBL-1) supernatant, [1-14C]-arachidonic acid and Ca++, several values = results from additional tests, read-out: 5-Lipoxygenase Inhibition IC50

Compound	IC50 [1]	other results
CCCCCCc1ccc(/C=C(\C(C)=O)C(=O)OCC)cc1 [Example 1A, Ethyl 2E-[(4-hexylphenyl)methylene]-3-oxobutanoate]	3 µM and 7.9 µM and 15 µM	–
CCCCCCc1ccc(/C=C(/C(C)=O)C(=O)OCC)cc1 [Example 1B, Ethyl 2Z-[(4-hexylphenyl)methylene]-3-oxobutanoate]	7.6 µM and 5.9 µM	–
CCCCCCc1ccc(/C=C(/C(C)=O)C(=O)c2ccccc2)cc1 [Example 2, 2Z-[(4-hexylphenyl)methylene]-1-phenyl-1,3-butanedione]	18 µM	–
CCCCCCCCc1ccc(/C=C(\C(C)=O)C(=O)OCC)cc1 [Example 3C, Ethyl 2E-[(4-octylphenyl)methylene]-3-oxobutanoate]	5.9 µM and 14 µM	–
CCCCCCCCc1ccc(/C=C(/C(C)=O)C(=O)OCC)cc1 [Example 3D, Ethyl 2Z-[(4-octylphenyl)methylene]-3-oxobutanoate]	–	inhibition at 100 µM: 42%
CCCCCCCCc1ccc(C=C(C(=O)OCC)C(=O)OCC)cc1 [Example 4, Diethyl 2-[(4-octylphenyl)methylene]propanedioate]	–	inhibition at 100 µM: 45.6%
CCCCCCCCc1ccc(C=C(C(C)=O)C(C)=O)cc1 [Example 5, 3-[(4-octylphenyl)methylene]-2,4-pentanedione]	4.4 µM	–
CCCCCCCCc1ccc(/C=C/C(C)=O)cc1 [Example 8, 4-(4-octylphenyl)-3E-buten-2-one]	–	IC50: 100 µM
CCCCCCc1ccc(/C=C/C(C)=O)cc1 [Example 9, 4-(4-hexylphenyl)-3E-buten-2-one]	100 µM	–
CCCCCCc1ccc(C=C(C(=O)OCC)C(=O)OCC)cc1 [Example 10, Diethyl 2-[(4-hexylphenyl)methylene]propanedioate]	100 µM	–

Second part, led by results:

IC50 [1]	Compound	other results
47 µM	CCOC(=O)/C(=C/c1ccc(Cl)cc1)C(C)=O [Example 6E, Ethyl 2E-[(4-chlorophenyl)methylene]-3-oxobutanoate]	–
56 µM	CCOC(=O)/C(=C\c1ccc(Cl)cc1)C(C)=O [Example 6F, Ethyl 2Z-[(4-chlorophenyl)methylene]-3-oxobutanoate]	–
74 µM	CCOC(=O)/C(=C/c1ccc([N+](=O)[O-])cc1)C(C)=O [Example 7G, Ethyl 2E-[(4-nitrophenyl)methylene]-3-oxobutanoate]	–
78 µM	CCOC(=O)/C(=C\c1ccc([N+](=O)[O-])cc1)C(C)=O [Example 7H, Ethyl 2Z-[(4-nitrophenyl)methylene]-3-oxobutanoate]	–
